The record followed here is patent publication US20230000842A1, “METHODS OF TREATING CARTILAGE DISORDERS THROUGH INHIBITION OF CLK AND DYRK” (SAMUMED, LLC, priority 2019, published 2023).

One assay concerns the target CLK2 kinase (Homo sapiens, UniProt P49760). As to the kind of experiment: CLK2 kinase activity assay (Z-lyte FRET).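 Further: FRET read-out as coumarin to fluorescein emission ratio, unphosphorylated peptide as 0% and phosphorylated peptide as 100% controls, duplicate reactions, non-linear regression fit of dose-response curves.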 The assay is classed as biochemical. Conditions: Z-lyte Ser/Thr 6 peptide, 60 μM ATP, 1 h at room temperature.
The target of another assay is CLK3 kinase (Homo sapiens, UniProt P49761). As to the kind of experiment: CLK3 kinase activity assay (Z-lyte FRET).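 Further: kinase activity read as coumarin/fluorescein emission ratio by FRET, unphosphorylated peptide as 0% and phosphorylated peptide as 100% control, values from non-linear regression of dose-response curves.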 The assay is classed as biochemical. Conditions: Z-lyte Ser/Thr 18 peptide, 156 μM ATP, 1 h at room temperature.
Chain of CLK3 kinase (P49761 whole entry): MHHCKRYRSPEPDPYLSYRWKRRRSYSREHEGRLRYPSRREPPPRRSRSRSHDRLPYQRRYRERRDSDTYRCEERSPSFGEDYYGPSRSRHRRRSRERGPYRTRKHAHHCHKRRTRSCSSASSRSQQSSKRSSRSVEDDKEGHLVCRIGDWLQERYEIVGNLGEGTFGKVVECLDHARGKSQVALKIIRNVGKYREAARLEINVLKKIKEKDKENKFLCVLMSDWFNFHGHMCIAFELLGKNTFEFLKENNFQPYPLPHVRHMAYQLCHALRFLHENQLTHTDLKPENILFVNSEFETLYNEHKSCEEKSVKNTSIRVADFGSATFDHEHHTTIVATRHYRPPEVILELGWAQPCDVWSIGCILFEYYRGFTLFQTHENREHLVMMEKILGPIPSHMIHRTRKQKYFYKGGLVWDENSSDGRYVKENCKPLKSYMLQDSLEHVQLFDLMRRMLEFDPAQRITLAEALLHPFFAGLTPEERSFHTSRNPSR
Assay [1] concerns primary human mesenchymal stem cells (hMSCs). As to the kind of experiment: Chondrogenesis screening using primary human mesenchymal stem cells. The assay is classed as cell-based. The note with it: Homo sapiens, Mesenchymal stem cells, hMSC chondrogenesis; for Emax: maximum activity relative to TGF-β3 (10 ng/mL) positive control, read-out: Max. Activity as % TGF-β3 activity; for EC50: concentration required to induce 50% levels of chondrogenesis with TGF-β3 as positive control, read-out: Conc (nM) of 50% TGF-β3 activity. The text has this: Representative compounds were screened using primary human mesenchymal stem cells (hMSCs) to determine their ability to induce chondrogenesis (process by which cartilage is developed).
Human Mesenchymal Stem Cell Culture: Primary human mesenchymal stem cells (hMSCs) were purchased from Lonza (Walkersville, Md.) and expanded in Mesenchymal Stem Cell Growth Media (Lonza). Cells between passage 3 and 6 were used for the experiments.
Area of nodules in each well was normalized to the average of 3 DMSO treated wells on the same plate using Excel (Microsoft Inc.). The normalized averages (fold change over DMSO) of 2 or 3 replicate wells for each compound concentration were calculated. Due to solubility limitations of some of the compounds, curve fitting was incomplete leading to inaccurate EC50 determinations.
Using TGF-β3 as a positive control, the concentration of representative compounds required to induce 50% levels of chondrogenesis is reported. In addition, the maximum activity of each compound and the respective dose that each compound reached maximum chondrogenesis activity is reported.

For assay [2], the system named is Wnt pathway activity (SW480 colon carcinoma cells stably expressing the Sp5-Luc reporter). As to the kind of experiment: Wnt pathway activity screening assay (Sp5-Luc reporter gene assay). The note with it: Homo sapiens, SW480, Table 4; SW480 cells stably expressing Sp5-Luc reporter, 10-point dose-response from 10 μM, 36 to 48 hours. Background: Reporter assays use an easily measured gene product as a stand-in for the process of interest.

Chain of CLK2 kinase (P49760 whole entry): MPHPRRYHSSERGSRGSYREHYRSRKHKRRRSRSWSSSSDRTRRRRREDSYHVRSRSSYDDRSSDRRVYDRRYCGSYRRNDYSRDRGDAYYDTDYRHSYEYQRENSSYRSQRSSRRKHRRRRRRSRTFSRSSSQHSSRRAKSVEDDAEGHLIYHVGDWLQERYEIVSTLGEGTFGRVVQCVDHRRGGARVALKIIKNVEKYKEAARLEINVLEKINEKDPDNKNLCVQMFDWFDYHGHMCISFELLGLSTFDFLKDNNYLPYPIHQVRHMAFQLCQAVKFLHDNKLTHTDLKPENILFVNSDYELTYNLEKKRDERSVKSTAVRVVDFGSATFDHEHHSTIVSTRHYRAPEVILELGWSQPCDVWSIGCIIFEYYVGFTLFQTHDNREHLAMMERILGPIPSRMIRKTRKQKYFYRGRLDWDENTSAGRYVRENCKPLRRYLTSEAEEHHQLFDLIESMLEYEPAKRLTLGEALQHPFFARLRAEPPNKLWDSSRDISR

For `CN1CCN(c2nccc3[nH]c(-c4n[nH]c5ccc(-c6cncc(NC(=O)C7CCCCC7)c6)cc45)cc23)CC1` [compound 482], the results for the EC50 (at CLK2 kinase; on CLK3 kinase; in assay [2]) were 14 nM, 2380 nM and 5270 nM, respectively. Moreover, the Emax in assay [1] came out at 37.8%.
On to `O=C(Nc1cncc(-c2ccc3[nH]nc(-c4nc5c(-c6ccncc6)ccnc5[nH]4)c3n2)c1)C1CCCCC1` [compound 198], for which the EC50 on CLK2 kinase is 11 nM; at CLK3 kinase it was 984 nM; in assay [1], 10 nM; in assay [2] it was 999 nM. The Emax in assay [1] stood at 68.6%.
In the same order, the values of `CCNCc1cncc(-c2cnc3[nH]nc(-c4cc5c(-c6cc(F)cc(CNS(C)(=O)=O)c6)nccc5[nH]4)c3c2)c1` [compound 532] are 3 nM, 305 nM, 300 nM, above 10000 nM and 61.2%.
In the same order, the values of `CC(C)Nc1cncc(-c2ccc3[nH]nc(-c4nc5c(-c6ccoc6)ccnc5[nH]4)c3n2)c1` [compound 240] are 2 nM, 113 nM, 100 nM, 298 nM and 64.2%.
In the case of `FC1(F)CCN(Cc2cncc(-c3cnc4[nH]nc(-c5cc6c(-c7ccncc7)cccc6[nH]5)c4c3)c2)C1` [compound 401], the EC50 on CLK2 kinase amounted to 15 nM; at CLK3 kinase, 895 nM; in assay [2], 708 nM. Further, the Emax in assay [1] came to 29.2%.
`CC(C)(C)CC(=O)Nc1cncc(-c2ccc3[nH]nc(-c4nc5ccncc5[nH]4)c3n2)c1` [compound 203]: the EC50 on CLK2 kinase is 11 nM; at CLK3 kinase, 558 nM; in assay [1] it was 10 nM; in assay [2], above 10000 nM. For the same compound, the Emax in assay [1] stood at 54.1%.
In the same order, the values of `CN(C)CCNc1cc(F)cc(-c2cccc3[nH]c(-c4n[nH]c5cnc(-c6cncc(N)c6)cc45)cc23)c1` [compound 511] are 6 nM, 50 nM, 100 nM, 407 nM and 180%.
In the same order, the values of `CC(C)(C)C(=O)Nc1cncc(-c2ccc3[nH]nc(-c4nc5c(-c6ccc(Cl)s6)cncc5[nH]4)c3n2)c1` [compound 265] are 8 nM, 91 nM, 10 nM, 551 nM and 84.7%.
For `CN(C)Cc1cncc(-c2ccc3[nH]nc(-c4cc5c(N6CCCCC6)cccc5[nH]4)c3c2)c1` [compound 464] the same measures were 13 nM, 3660 nM, 10 nM, 575 nM and 205%.
`Nc1cncc(-c2ccc3[nH]nc(-c4cc5c(-c6ccccc6F)ccnc5[nH]4)c3c2)c1` [compound 320]: the EC50 came to 9 nM on CLK2 kinase, 33 nM on CLK3 kinase and 131 nM in assay [2]. In addition, the Emax in assay [1] turned out to be 23.5%.
For `CC(C)(C)C(=O)Nc1cncc(-c2cc3c(-c4cc5c(-c6ccncc6)cncc5[nH]4)n[nH]c3cn2)c1` [compound 392] the same measures were 9 nM, 92 nM, above 10000 nM and 30.4%.
With `FC1(F)CCN(Cc2cncc(-c3ccc4[nH]nc(-c5cc6c(-c7cccnc7)ccnc6[nH]5)c4c3)c2)C1` [compound 370], the EC50 was found to be 6 nM on CLK2 kinase, 101 nM at CLK3 kinase and 523 nM in assay [2]. Besides, in assay [1], the Emax was found to be 20.3%.
For the compound `Cc1cn(-c2nccc3[nH]c(-c4n[nH]c5ccc(-c6cncc(NC(=O)C(C)(C)C)c6)nc45)nc23)cn1` [compound 221], the EC50 on CLK2 kinase is 3 nM; on CLK3 kinase it was 188 nM; in assay [1] it was 30 nM; in assay [2], above 10000 nM. In assay [1], the Emax came to 69.7%.
Regarding `CCNCc1cncc(-c2cc3c(-c4cc5c(-c6ccccc6F)ccnc5[nH]4)n[nH]c3cn2)c1` [compound 335], the EC50 on CLK2 kinase was 19 nM; on CLK3 kinase, 2310 nM; in assay [1], 30 nM; in assay [2], above 10000 nM. Further, in assay [1], the Emax is 270%.
With `O=C(Nc1ccc(N2CCC(O)CC2)nc1)c1n[nH]c2ccc(-c3cncc(CN4CCCCC4)c3)cc12` [compound 91], the values for the EC50 (at CLK2 kinase; at CLK3 kinase; in assay [2]) were 1 nM, 22 nM and 49 nM, respectively.
For `O=C(Nc1cc2cc(-c3cncc(NC4CCNCC4)n3)ccc2cn1)C1CC(F)(F)C1` [compound 600] the same measures were 3 nM, 78 nM and 381 nM.
In the same order, the values of `CNc1nc(NCc2ncccn2)c2c(-c3ccc4ncccc4c3)c[nH]c2n1` [compound 624] are 10 nM, 26 nM and 73.3 nM.
As for `O=C(Nc1cnccn1)c1n[nH]c2ccc(-c3cncc(CN4CCCCC4)c3)cc12` [compound 95], the EC50 on CLK2 kinase is 1 nM; on CLK3 kinase, 46 nM; in assay [2] it was 289 nM.
As for `O=C(Nc1cccnc1)c1n[nH]c2ccc(-c3cncc(NC(=O)N4CCOCC4)c3)cc12` [compound 56], the EC50 at CLK2 kinase was 4 nM; at CLK3 kinase, 47 nM; in assay [2], 1250 nM.
In the same order, the values of `O=C(Nc1ccc2c(c1)OCCO2)c1n[nH]c2ccc(-c3cncc(CN4CCCCC4)c3)cc12` [compound 97] are 1 nM, 60 nM and 125 nM.
For `CN(C)CCOc1cncc(-c2cnc3[nH]nc(-c4nc5c(-c6cccc(F)c6)nccc5[nH]4)c3c2)c1` [compound 151] the same measures were 1 nM, 55 nM and 253 nM.
For `Cc1n[nH]c2cc(F)c(-c3cncc(CN4CCCCC4)n3)cc12` [compound 40] the same measures were 45 nM, 2380 nM and 2440 nM.
On to `CN1CCN(Cc2ccc(NC(=O)c3n[nH]c4ccc(-c5cccnc5)cc34)cn2)CC1` [compound 62], for which the EC50 on CLK2 kinase stood at 1 nM; on CLK3 kinase, 34 nM; in assay [2] it was 37 nM.
Consider `Cc1n[nH]c2ccc(-c3cncc(NN4CCNCC4)n3)cc12` [compound 41], for which the results for the EC50 (at CLK2 kinase; at CLK3 kinase; in assay [2]) were 1 nM, 1420 nM and 256 nM, respectively.
For `Fc1cccc(-c2cncc3[nH]c(-c4n[nH]cc4C#Cc4cncc(OC5CCNCC5)c4)nc23)c1` [compound 33] the same measures were 3 nM, 148 nM and 4640 nM.
For `Nc1cncc(-c2ccc3[nH]nc(-c4cc5c(-c6cccnc6)nccc5[nH]4)c3c2)c1` [compound 347] the same measures were 2 nM, 18 nM and 146 nM.
Take `CN(C)CCN(C)c1ccc(NC(=O)c2n[nH]c3ccc(-c4cncc(CN5CCCCC5)c4)cc23)cn1` [compound 84]: the EC50 was 1 nM at CLK2 kinase, 14 nM on CLK3 kinase and 65 nM in assay [2].
For `O=C(Nc1ccc(-c2ccccc2)nc1)c1n[nH]c2ccc(-c3cncc(CN4CCCCC4)c3)cc12` [compound 93] the same measures were 5 nM, 71 nM and 101 nM.
In the same order, the values of `CC(C)CC(=O)Nc1cncc(-c2ccc3[nH]nc(-c4nc5c(N6CCN(C)CC6)cccc5[nH]4)c3c2)c1` [compound 217] are 3 nM, 40 nM and 268 nM.
Consider `CC(C)Nc1cncc(-c2ccc3cnc(NC(=O)C4CCN(CCF)CC4)cc3c2)n1` [compound 598], for which the EC50 came out at 8 nM at CLK2 kinase, 52 nM at CLK3 kinase and 178 nM in assay [2].
In the same order, the values of `O=C(Nc1cc2cc(-c3cncc(NCC4(F)CNC4)n3)ncc2cn1)C1CC1` [compound 615] are 7 nM, 53 nM and 383 nM.
For `Cc1cc2[nH]nc(C(=O)Nc3ccc(CN4CCCC4)cc3)c2cc1-c1cccnc1` [compound 60], the EC50 on CLK2 kinase was 2 nM; on CLK3 kinase it was 581 nM; in assay [2], 1090 nM.
In the same order, the values of `CN(C)Cc1cncc(NC(=O)c2n[nH]c3ccc(-c4cncc(CN5CCCC5)c4)cc23)c1` [compound 70] are 1 nM, 36 nM and 330 nM.
In the same order, the values of `O=C(Nc1ccnnc1)c1n[nH]c2ccc(-c3cccnc3)cc12` [compound 64] are 1 nM, 21 nM and 106 nM.
For `Cc1ncc(NC(=O)c2n[nH]c3ccc(-c4cnc(C)n4C)cc23)s1` [compound 115] the same measures were 1 nM, 99 nM and 335 nM.
